In PMC2234497 (The Journal of General Physiology, 2004):

What was measured:
[1] = target: T1, homomeric (CNGA1) rod CNG channels (Bos taurus, UniProt Q00194); details: cited from earlier work
T1 sequence (Q00194 1-690): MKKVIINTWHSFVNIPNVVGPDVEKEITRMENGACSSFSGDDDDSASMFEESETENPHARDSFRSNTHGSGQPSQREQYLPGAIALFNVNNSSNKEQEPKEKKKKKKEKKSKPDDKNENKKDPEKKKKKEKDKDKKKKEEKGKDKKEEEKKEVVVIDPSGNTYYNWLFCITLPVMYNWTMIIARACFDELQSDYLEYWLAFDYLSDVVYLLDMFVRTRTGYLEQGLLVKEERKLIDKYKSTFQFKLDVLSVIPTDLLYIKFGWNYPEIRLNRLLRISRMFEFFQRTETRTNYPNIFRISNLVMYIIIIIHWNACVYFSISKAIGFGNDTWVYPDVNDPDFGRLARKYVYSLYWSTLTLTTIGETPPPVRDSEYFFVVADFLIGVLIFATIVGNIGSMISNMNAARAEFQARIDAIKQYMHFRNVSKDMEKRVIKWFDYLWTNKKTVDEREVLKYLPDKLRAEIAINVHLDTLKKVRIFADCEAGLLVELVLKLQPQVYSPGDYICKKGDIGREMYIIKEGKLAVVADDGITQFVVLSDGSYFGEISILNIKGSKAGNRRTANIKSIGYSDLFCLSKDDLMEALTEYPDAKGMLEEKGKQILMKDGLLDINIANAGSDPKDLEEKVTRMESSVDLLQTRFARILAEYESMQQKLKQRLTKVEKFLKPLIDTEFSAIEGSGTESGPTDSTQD

[2] = target: heteromeric (CNGA1 + CNGB1) rod CNG channels (Bos taurus, UniProt Q00194+Q28181); details: ref Chen et al., 1993; cited from earlier work
Sequence of heteromeric (CNGA1 + CNGB1) rod CNG channels (Q28181 whole entry, one chain of several): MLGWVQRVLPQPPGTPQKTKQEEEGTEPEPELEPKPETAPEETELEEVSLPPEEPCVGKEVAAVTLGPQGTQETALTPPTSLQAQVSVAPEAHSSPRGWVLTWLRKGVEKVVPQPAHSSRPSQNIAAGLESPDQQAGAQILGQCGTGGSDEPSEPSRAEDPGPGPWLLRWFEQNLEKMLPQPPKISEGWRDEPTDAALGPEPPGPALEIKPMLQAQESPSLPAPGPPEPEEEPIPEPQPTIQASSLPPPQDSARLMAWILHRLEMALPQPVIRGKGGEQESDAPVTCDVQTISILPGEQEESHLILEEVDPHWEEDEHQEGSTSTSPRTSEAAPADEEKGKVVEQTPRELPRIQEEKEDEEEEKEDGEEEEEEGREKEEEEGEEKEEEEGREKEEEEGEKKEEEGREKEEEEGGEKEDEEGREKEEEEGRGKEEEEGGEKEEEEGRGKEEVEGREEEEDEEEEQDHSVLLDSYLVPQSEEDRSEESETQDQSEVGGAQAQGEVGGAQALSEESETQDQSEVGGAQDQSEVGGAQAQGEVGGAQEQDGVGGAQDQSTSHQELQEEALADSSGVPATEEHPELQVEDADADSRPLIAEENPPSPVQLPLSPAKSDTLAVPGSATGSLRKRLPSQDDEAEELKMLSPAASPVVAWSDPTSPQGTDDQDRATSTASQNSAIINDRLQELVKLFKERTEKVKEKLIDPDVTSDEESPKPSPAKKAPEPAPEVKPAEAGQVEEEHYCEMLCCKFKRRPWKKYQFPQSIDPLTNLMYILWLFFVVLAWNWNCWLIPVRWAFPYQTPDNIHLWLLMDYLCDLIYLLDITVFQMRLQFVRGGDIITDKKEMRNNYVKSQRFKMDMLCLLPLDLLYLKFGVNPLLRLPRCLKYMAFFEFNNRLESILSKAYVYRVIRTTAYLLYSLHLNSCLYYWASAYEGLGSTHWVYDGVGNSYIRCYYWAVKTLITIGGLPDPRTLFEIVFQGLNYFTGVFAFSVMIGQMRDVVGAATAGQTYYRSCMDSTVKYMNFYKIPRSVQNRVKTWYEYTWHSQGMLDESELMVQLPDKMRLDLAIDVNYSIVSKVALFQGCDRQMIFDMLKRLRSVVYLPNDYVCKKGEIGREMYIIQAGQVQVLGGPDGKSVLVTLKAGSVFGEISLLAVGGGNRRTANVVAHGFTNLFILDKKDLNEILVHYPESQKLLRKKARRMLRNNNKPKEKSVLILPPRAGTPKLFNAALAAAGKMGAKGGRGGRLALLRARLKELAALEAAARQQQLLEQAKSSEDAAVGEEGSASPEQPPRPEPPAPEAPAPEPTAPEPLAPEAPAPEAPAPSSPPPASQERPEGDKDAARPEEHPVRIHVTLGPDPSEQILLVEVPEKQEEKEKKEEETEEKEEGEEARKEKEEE

[3] = target: T1, homomeric (CNGA1) rod CNG channels; assay type: cell-based, bovine
[4] = model fit of cGMP dose–response without ATR

CC1=C(/C=C/C(C)=C/C=C/C(C)=C/CO)C(C)(C)CCC1 [all-trans-retinol]
inhibition of the rod CNG channel ([1]; ref Dean et al., 2002): inhibited quite well

COc1ccc([C@H]2Sc3ccccc3N(CCN(C)C)C(=O)[C@H]2OC(C)=O)cc1 (relative stereo) [l-cis-diltiazem]
effect on homomeric channels ([1]; ref Chen et al., 1993): little effect
block of heteromeric channels [2]: sensitively blocks

Nc1nc2c(ncn2[C@@H]2O[C@@H]3COP(=O)(O)O[C@H]3[C@H]2O)c(=O)[nH]1 [cGMP]
open probability predicted by KcN and L ([3]; 2 mM cGMP, no ATR): 0.95
KcN, association constant for cyclic nucleotide binding [3, 4]: 7,200 M^−1
L, equilibrium constant for the allosteric opening transition of the fully liganded channel [3, 4]: 19.8
